According to PubChem BioAssay (NCI):
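1) Cells in 96-well plates. 2) Compound, 48 h, 5 concentrations. 3) Linear interpolation between surrounding doses. 4) Unreached endpoint = highest concentration. TGI denotes the concentration required for complete inhibition of growth.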

Columns and labels:
Experiment in all cases: NCI tumour cell line growth inhibition, 48 h
[1] = tested on: COLO 205 colon
[2] = tested on: KM12 colon
[3] = tested on: M14 melanoma
[4] = tested on: MALME-3M melanoma
[5] = tested on: NCI-H460 lung
[6] = tested on: NCI-H522 lung
[7] = tested on: OVCAR-3 ovarian
[8] = tested on: OVCAR-8 ovarian
[9] = tested on: RXF 393 renal
[10] = tested on: SF-295 CNS
[11] = tested on: SF-539 CNS
[12] = tested on: SK-OV-3 ovarian
[13] = tested on: SNB-19 CNS
[14] = tested on: SNB-75 CNS
[15] = tested on: TK-10 renal
[16] = tested on: U251 CNS
[17] = tested on: UACC-62 melanoma
[18] = tested on: T-47D breast
[19] = tested on: MDA-N

| Structure (SMILES) | TGI [1] [µM] | TGI [2] [µM] | TGI [3] [µM] | TGI [4] [µM] | TGI [5] [µM] | TGI [6] [µM] | TGI [7] [µM] | TGI [8] [µM] | TGI [9] [µM] | TGI [10] [µM] | TGI [11] [µM] | TGI [12] [µM] | TGI [13] [µM] | TGI [14] [µM] | TGI [15] [µM] | TGI [16] [µM] | TGI [17] [µM] | TGI [18] [µM] | TGI [19] [µM] |
| --- | --- | --- | --- | --- | --- | --- | --- | --- | --- | --- | --- | --- | --- | --- | --- | --- | --- | --- | --- |
| CC/C(SC)=[N+](\C)[O-] | > 66.9 | > 100 | > 100 | > 100 | > 100 | > 62.3 | > 100 | > 100 | > 100 | > 100 | > 100 | > 100 | > 100 | > 100 | > 100 | > 100 | > 100 |  |  |
| COc1ccc(C2C(C=O)C(N3CCN(C)CC3)=Nc3nc4ccccc4n32)cc1 (centres undefined) | 36 | 50.6 | 41.5 | 26.3 | 91.1 | 25.6 | 40.5 | 33.1 | 39.2 | 50.9 | 54.5 |  | 41 | 31.3 | 40 | 39.3 | 36.5 | 40.6 |  |
| CN1N=C2c3ccccc3CC[C@H]2C1c1cccc(O)c1 (some centres undefined) | > 100 | > 100 | > 100 | 5.01 | > 100 | > 100 | > 100 | > 100 | > 100 | > 100 | > 100 | > 100 | > 100 |  | > 100 | > 100 | > 100 |  |  |
| COC(=O)N/N=C(/Cc1occc(=O)c1O)C(=O)Nc1ccc([N+](=O)[O-])cc1[N+](=O)[O-] | > 100 | > 100 | > 100 | > 100 | > 100 | > 100 |  | > 100 | > 100 | > 100 | > 100 | > 100 | > 100 | > 100 | > 100 | > 100 | > 100 |  |  |
| CC(C)C1COC(c2ccc3ccccc3c2-c2c(O[Si](C)(C)C(C)(C)C)ccc3ccccc23)=N1 (centres undefined) | 33.6 | 35.7 | 29.2 | 32.9 | 37.4 | 29.8 | 31.5 | 35.3 | 34.7 | 32.1 | 32.4 | 34.5 | 29.2 | 32.5 | 33 |  | 30.9 |  |  |
| COC1=CC(=O)C2C(C1=O)C(c1ccc(OC)c(OC)c1)[C@H]2C (some centres undefined) | 36.9 | > 100 | 34.9 | 35.3 | > 100 | 26.1 | 40.1 | 42.5 | 35.2 | > 100 | > 100 | > 100 | > 100 | > 100 | 33.3 | > 100 | > 100 |  |  |
| O=C(O)C1=NN(c2ccc(S(=O)(=O)O)cc2)C2(C1)SCC(=O)N2c1nc2ccccc2s1 (centres undefined) | > 100 | > 100 | > 100 | > 100 | > 100 | > 100 | > 100 | > 100 | > 100 | > 100 | > 100 | > 100 | > 100 | > 100 | > 100 | > 100 | > 100 | > 100 |  |
| Fc1c(F)c(C(F)(F)F)c(F)c(F)c1N/N=C/c1cn(Cc2ccccc2)c2ccccc12 | 26.8 | 45 | 43 | > 100 | 27.9 | 70.1 | 36.6 | > 100 | 41.5 | 36.2 | 42.1 | 48.4 | 76.8 | 62.4 | 66.4 | > 100 | 61.5 | 83.6 |  |
| CC[C@H]1C=CCC[C@@]2(C[C@@H]3CC[C@H]4[C@H](C(=O)OCCCCCCCCCCCCCCCC(=O)N(CCCN)C[C@@H](O)CCN)[C@]5(CCC[C@@H](C)O5)NC(=[N+]34)N2)O1 | 1.3 | 1.82 | 0.495 | 0.806 | 1.87 | 2.72 | 3.02 | 2.92 | 3.42 | 3.31 | 3.32 | 3.28 | 2.93 |  | 2.98 | 1.44 | 0.412 |  | 1.51 |
| CCN(CC)CCCCC1CCN(CC(=O)N2c3cc(Cl)ccc3NC(=O)CC2C)CC1 (centres undefined) | > 100 |  | > 100 | > 100 | > 100 |  | > 100 |  |  | > 100 |  | > 100 | > 100 |  |  | > 100 | > 100 |  |  |
| Fc1ccc2c3c([nH]c2c1)CCNC3 | > 100 | > 100 | > 100 | > 100 | > 100 |  |  | > 100 | > 100 | > 100 | > 100 | > 100 | > 100 | > 100 | > 100 | > 100 | > 100 | > 100 |  |
| CCOP(=O)(OCC)C(Nc1ccc(C(=O)O)cc1)c1ccc(C(Nc2ccc(C(=O)O)cc2)P(=O)(OCC)OCC)cc1 (centres undefined) | > 100 | > 100 | > 100 | > 100 | > 100 | > 100 | > 100 | > 100 | > 100 | > 100 |  | > 100 | > 100 | > 100 | > 100 | > 100 | > 100 | > 100 |  |
| COC(=O)c1ccc(NCC2=CC(=O)C=CC2=O)cc1 | 8.67 | 28.6 | 15.8 | 13.9 |  | 3.11 |  | 39.9 |  |  | 24.5 | 30.3 | 28.2 | 30.3 | 22.7 | 28.7 | 29 |  | 24.2 |
| N#CCc1nc(-c2cc3c(ccc4ccccc43)oc2=O)cs1 | > 100 | > 100 | > 100 | > 100 | > 100 | 27.4 |  | > 100 | 74 | 71.2 | 51.4 | 77 | 36.4 | 20.4 | 38.9 | 38.5 | 68.4 | > 100 |  |
| COc1ccc2c(c1)OC(c1ccccc1O)CC2=O (centres undefined) |  | > 100 | > 100 | > 100 | > 100 | 92.8 | 96.8 | > 100 |  | > 100 | > 100 |  | > 100 | > 100 | > 100 | > 100 |  |  |  |
| CCCc1c(C(=O)OCC)[nH]c(C(=O)CCC(=O)c2[nH]c(C(=O)OCC)c(CCC)c2C(=O)OCC)c1C(=O)OCC | > 100 | > 100 | > 100 | > 100 | > 100 | > 100 | > 100 | > 100 | > 100 | > 100 | > 100 | > 100 | > 100 | 62.5 | > 100 | > 100 | > 100 |  |  |
| CC12C(=O)OC(=O)C1(C)C1C=CC2O1 (centres undefined) | > 100 | > 100 | > 100 | > 100 | > 100 | > 100 | 99 | > 100 | > 100 | > 100 | > 100 | > 100 | > 100 | > 100 | > 100 | > 100 | > 100 |  | > 100 |
| O=c1c2cc(S(=O)(=O)Nc3c(Cl)cccc3Cl)ccc2ncn1NS(=O)(=O)c1ccc2ccccc2c1 | > 62.5 | > 62.5 | > 62.5 | > 62.5 | > 62.5 | > 62.5 | > 62.5 | > 62.5 |  | > 62.5 | > 62.5 | > 62.5 | > 62.5 | > 62.5 | > 62.5 | > 62.5 | > 62.5 |  | > 62.5 |
| O=C(CC(=O)N1N=C(N(c2ccccc2)c2ccccc2)CC1c1ccccc1)Nc1ccccc1 (centres undefined) | > 100 | > 100 | > 100 |  | > 100 | > 100 | > 100 | > 100 | > 100 | > 100 | > 100 | > 100 | > 100 | > 100 | > 100 | > 100 | > 100 | > 100 |  |
| O=C1OC(CS(=O)(=O)c2ccccc2)CC1O (centres undefined) | > 100 | > 100 | > 100 | > 100 | > 100 | > 100 | > 100 | > 100 | > 100 | > 100 | > 100 | > 100 | > 100 |  | > 100 | > 100 | > 100 |  | > 100 |
| CCOC(=O)c1cc(C#N)[nH]c1-c1ccsc1 | > 100 | 69.6 | > 100 | 77.3 | > 100 | 90.2 | 96 | > 100 | 51.3 | > 100 | 77.1 | > 100 | > 100 | 97.4 | > 100 | 87.8 | > 100 |  | > 100 |
| CC(C)N1[C@@H]2CCCC[C@H]2N(C(C)C)P1(=O)C(=O)/C=C/c1ccccc1 | 5.05 | 10.2 | 5.49 | 2.33 | 10.3 | 3.26 | 5.74 | 3.46 | 3.46 | 23.4 | 6.34 |  | 18.3 |  | 12.9 | 16.5 | 9.02 |  | 3.82 |
| Nc1ncnc2c1ncn2C1CC(OC2CCCCO2)C(CO)O1 (centres undefined) | > 100 | > 100 | > 100 | > 100 | > 100 | > 100 | > 100 | > 100 | > 100 | > 100 | > 100 | > 100 | > 100 |  | > 100 | > 100 |  |  |  |
| CC1(O)Oc2ccc3ccccc3c2C=C1C(N)=O (centres undefined) | > 100 | > 100 | > 100 |  | > 100 |  |  |  | > 100 | > 100 | > 100 | > 100 | > 100 | > 100 | > 100 | > 100 | > 100 | > 100 |  |
| C/C(=N/NC(N)=S)C(CN(C)C)C(C1=C(O)c2ccccc2OC1)c1ccccc1 (centres undefined) | > 100 | > 100 | > 100 | > 100 | > 100 | > 100 | > 100 | > 100 | > 100 | > 100 | > 100 | > 100 | > 100 | > 100 | > 100 | > 100 | > 100 |  |  |
| CCOC(=O)Nn1c(C)cc(C(=O)OC)c1C | > 100 | > 100 | > 100 | > 100 | > 100 | > 100 | > 100 | > 100 | > 100 | > 100 | > 100 | > 100 | > 100 | > 100 | > 100 | > 100 | > 100 |  |  |
| Cc1cc(=O)[nH]c(NNC(C#N)c2ccco2)n1 (centres undefined) | > 100 | > 100 | > 100 | > 100 | > 100 | > 100 | > 100 | > 100 | > 100 | > 100 | > 100 | > 100 |  | > 100 | > 100 | > 100 | > 100 |  |  |
| Cc1ccc(S(=O)(=O)Nn2c(O)c(C#N)c(-c3ccc(N(C)C)cc3)c(C#N)c2=O)cc1 | > 50 | > 50 |  | > 50 | > 50 | > 50 |  | > 50 | > 50 | 5.32 | > 50 | 27.4 | > 50 | > 50 | > 50 | > 50 | > 50 |  | > 50 |
